Results: patent US20240299328A1, “COMPOSITIONS COMPRISING 15-HEPE AND METHODS OF TREATING AND/OR PREVENTING HEMATOLOGIC DISORDERS AND RELATED DISEASES” (Afimmune Limited, priority 2023, published 2024)
Marks after values point to notes of the source that are not given here.

Key:
[1] = tested on: Sprague Dawley rats; assay: 26 week rat toxicity study: tolerability, clinical signs; type: in vivo; conditions: 6 g/kg/day oral gavage, replaced with 3 g/kg/day
Description: (§1) The test and control items were administered to the appropriate animals by once daily oral gavage 7 days a week for a minimum of 26 weeks. The volume for each animal was based on the most recent body weight measurements. The doses were given using a syringe with attached gavage cannula. The first day of dosing was designated as Day 1. The dosing formulations were removed from the refrigerator and stirred for at least 30 minutes before dosing. The dosing formulations were also stirred continuously during dosing.
Due to the onset of clinical signs, including hunched posture, erect fur and abnormal gait and body weight loss, animals 3206M, 3515F and 3703F were given a dosing holiday from Day 45 and remaining Group 3 animals were given a dosing holiday from Day 48. Animals will start dosing at the lower dose level (3000 mg/kg/day) from Day 64. The following tables illustrate the treatments (Table 22) and animal groupings (Table 23) that were used in the study.
Mortality/moribundity checks were made daily. […] Animals were not removed from the cage during observation, unless necessary for identification or confirmation of possible findings.
Post-dose observations were made regularly throughout the day. […] The onset, intensity, and duration of these signs were recorded; particular attention was paid to the animals during and for the first hour after dosing.

[2] = tested on: BDL-operated mice; assay: BDL study: serum biochemistry (ALT, total bilirubin); type: in vivo
Description: Sample Collection: For serum samples, non-fasting blood was collected in serum separate tubes without anticoagulant through direct cardiac puncture and centrifuged at 3,500×g for 4 minutes at 4° C. The superatant was collected and stored at −80° C. for biochemistry (30 μL) and shipping (all the remaining). For liver samples, left lateral lobe was collected and cut into 6 pieces. Two pieces of left lateral lobe were fixed in Bouin's solution and then embedded in paraffin. Samples were stored at room temperature for histological analysis. The other 2 pieces of left lateral lobe were embedded in O.C.T. compound and quick frozen in liquid nitrogen. Samples were stored at −80° C. The remaining pieces of left lateral lobe was snap frozen in liquid nitrogen and stored at −80° C. for gene expression analyses. Right medial lobe, left medial lobe, right lobe and caudate lobe were snap frozen in liquid nitrogen and stored at −80° C. for shipping.

[3] = tested on: α-SMA, TIMP-1, TGF-β and Collagen Type 1 mRNA; assay: UUO study: quantitative RT-PCR of kidney; type: in vivo; conditions: UUO mice kidney, normalized to 36B4, Day 14, mean ± SD
Description: Quantitative RT-PCR: Total ribonucleic acid (RNA) was extracted from kidney samples using RNAiso. One μg of RNA was reverse-transcribed using a reaction mixture containing […] (mM) of magnesium chloride (MgCl2), 40 U RNase inhibitor, 0.5 mM dNTP, 6.28 µM random hexamer, 5× first strand buffer, 10 mM dithiothreitol and 200 U MMLV-RT in a final volume of 20 μL. The reaction was carried out for 1 hour at 37° C., followed by 5 minutes at 99° C. Real-time PCR was performed using real-time PCR DICE and TB Green™ Premix Ex Taq™ II. To calculate the relative […] (mRNA) expression level, the expression of each gene (e.g., α-SMA, TIMP-1, TGF-β and Collagen Type 1) was normalized to that of reference gene 36B4 (gene symbol: Rplp0). Information regarding the PCR-primer sets and the plate layout are described in Tables 1 and 2.

[4] = tested on: Sprague Dawley rats; assay: 26 week rat toxicity study: hematology; type: in vivo; conditions: male rats, 26 weeks
Description: as §1
(§2) Sample Collection: Blood was collected via the tail vein unless immediately prior to necropsy, when blood was collected from the orbital sinus under non-recoverable isoflurane anesthesia. Blood was collected in ascending animal order unless samples were collected prior to necropsy where the order of euthanasia was followed. Additional blood samples were obtained (e.g., due to clotting of non-serum samples) if permissible sampling frequency and blood volume were not exceeded. After collection, samples were transferred to the appropriate laboratory for processing. Samples were collected according to the following table.
Hematology: A 0.5 mL blood sample was collected using the anticoagulant K2EDTA. Blood smears were labelled, stained, and stored. The blood smears were analyzed according to the following parameters.
(§3) Animals: The study used male and female Sprague Dawley rats purchased from Charles River UK Limited (Margate, Kent, UK). The target age at the initial dosing was 7-8 weeks. The target weight at the initial dosing was 175-300 g (males) and 120-250 g (females). Each animal was identified using a subcutaneously implanted electronic cylindrical, “glass-sealed” TROVAN microchip.

[5] = tested on: Sprague Dawley rats; assay: 26 week rat toxicity study: coagulation; type: in vivo; conditions: male rats, 26 weeks
Description: as §1, §2
Coagulation: A 0.5 mL blood sample was collected using the anticoagulant 3.8% (w/v) trisodium citrate for processing to plasma. To assess coagulation the following coagulation parameters were measured.
as §3

[6] = tested on: rats; conditions: 26-week oral, once daily; cited from earlier work
[7] = 50 mg/kg PO QD Day 0-13, Day 14, mean ± SD
[8] = 250 mg/kg PO QD Day 0-13, Day 14, mean ± SD
[9] = 500 mg/kg PO QD Day 0-13, Day 14, mean ± SD
[10] = DS102 50, 250, 500 mg/kg groups vs Vehicle group
[11] = 6000/3000 mg/kg/day oral gavage

## CC/C=C\C[C@H](O)/C=C/C=C\C/C=C\C/C=C\CCCC(=O)OCC [DS102, 15(S)-hydroxy-(5Z,8Z,11Z,13E,17Z)-eicosapentaenoic acid ethyl ester]
[1]
  tolerability of the highest dose: not well tolerated
[2]; [7]
  Serum ALT: 402 ± 112 U/L
  Serum Total Bilirubin: 26.8 ± 6.9 mg/dL
[2]; [8]
  Serum ALT: 351 ± 155 U/L
  Serum Total Bilirubin: 23.5 ± 9.8 mg/dL
[2]; [9]
  Serum ALT: 383 ± 147 U/L
  Serum Total Bilirubin: 26.2 ± 6.1 mg/dL
[2]; [10]
  serum ALT level: no significant differences
  serum total bilirubin level: no significant differences
[3]; 50 mg/kg PO QD Day 0-13
  Alpha-SMA mRNA expression level: 3.74 ± 0.81
  Collagen Type 1 mRNA expression level: 11.80 ± 1.78
  TGF-β mRNA expression level: 4.31 ± 0.69
  TIMP-1 mRNA expression level: 138.30 ± 30.39
[3]; 500 mg/kg PO QD Day 0-13
  Alpha-SMA mRNA expression level: 5.54 ± 1.54
  Collagen Type 1 mRNA expression level: 14.09 ± 2.88
  TGF-β mRNA expression level: 5.37 ± 0.76
  TIMP-1 mRNA expression level: 124.80 ± 28.60
[4]; 2000 mg/kg/day oral gavage
  Red Cell Distribution Width (RDW), Mean: 13.91** %
  Red blood cell count (RBC), Mean: 8.67 10^12/L
  Reticulocyte count (RETIC), Mean: 1.546e+11 L⁻¹
[4]; [11]
  Red Cell Distribution Width (RDW), Mean: 13.60** %
  Red blood cell count (RBC), Mean: 8.81** 10^12/L
  Reticulocyte count (RETIC), Mean: 141.46** 10^9/L
[5]; 2000 mg/kg/day oral gavage
  Activated Partial Thromboplastin Time (APTT), Mean: 15.03* sec
  Fibrinogen (FIB), Mean: 2.35** g/L
  Prothrombin Time (PT), Mean: 10.69** sec
[5]; [11]
  Activated Partial Thromboplastin Time (APTT), Mean: 15.73** sec
  Fibrinogen (FIB), Mean: 2.26** g/L
  Prothrombin Time (PT), Mean: 10.81** sec
[6]
  highest dose tested, showing no adverse effects: 1 mg/kg/day
